Values joined by “and” are separate entries in the source; they are usually repeats but may differ in a detail not shown here. Equal entries are not always repeated.
Test system: 857933-349-R-J2-PDC complex spheroid viability
Test: Anticancer human tumor 857933-349-R-J2-PDC patient-derived colon adenocarcinoma cell line growth inhibition [POLQ]
Conditions: for viability, T/C: stronger effect = lower value
Description: Multicellular complex tumor spheroid response to Polymerase (POL) inhibitors (novobiocin, ART-558, RP6685) in combination with a variety of drugs and investigational agents in selected tumor cell lines
The POL inhibitors (novobiocin, ART-558, and RP6685) were evaluated both individually and in combination with standard of care and investigational anticancer small molecules within a complex spheroid model of solid tumors. . Complex spheroids include a stromal component modeled by human endothelial cells (HUVEC) and fibroblasts modeled by human mesenchymal stem cells (MSCs). The concentration ranges selected for each drug and investigational agent were based upon clinically achievable concentrations if the clinical Cmax of the agent was known.
Compounds. The drugs and investigational agents: novobiocin (NSC847541), ART-558 (NSC835418), RP-6685 (NSC848927), peposertib (NSC802822), ceralasertib (NSC780249), elimusertib (NSC800525), camonsertib (NSC841442), AZD-1390 (NSC803789), olaparib (NSC753686), talazoparib (NSC767125), rucaparib (NSC756644), sotorasib (NSC818433), MRTX-1133 (NSC836407), SN-38 (NSC673596), topotecan (NSC609699), epotoside (NSC141540), doxorubicin (NSC123127), gemcitabine (NSC613327), 5-fluorouracil (NSC19893), paclitaxel (NSC125973), vemurafenib (NSC761431), MSA-2 (NSC828583), SN-011 (NSC837082), adavosertib (NSC754352), prexasertib (NSC758257), carboplatin (NSC241240) and oxaliplatin (NSC266046), were obtained from the National Cancer Institute (NCI) Developmental Therapeutics Program Chemical Repository (21). The FDA-approved anticancer drug set is available from the Developmental Therapeutics Program at https://dtp.cancer.gov/organization/dscb/obtaining/. […] The stock solutions were prepared in dimethyl sulfoxide (DMSO, Sigma-Aldrich, St. Louis, MO, cat. D2650), except for the platinum compounds which were prepared in saline (Quality Biological, Gaithersburg, MD, cat. 114-055-101), at 800-fold the tested concentration and stored at -70 degrees C prior to their use. All drugs and investigational agents were tested over a range starting from a high concentration at or near the clinical Cmax and decreasing in half-log increments. If the clinical Cmax for an agent had not been determined, the highest concentration tested was 10 microM, except for SN-38, which was tested at a high concentration of 1 microM.
Cell Culture. All cells were maintained in an incubator at 37 degrees C and 5% CO2 with 95% humidity. The PDC lines were cultured according to standard operating procedures established by the NCI PDMR (https://pdmr.cancer.gov). Table 3 of the manuscript, lists the cell lines along with the number of the three cell types plated to form the mct-spheroids and media for tumor cell growth. After thawing, all PDC lines, except 997537-175-T-J1-PDC and 415267-285-R-J2-PDC, were cultured in Matrigel-coated flasks prepared with a working solution of 1X Ham's F-12 nutrient mix, without supplementation (Thermo Fisher Scientific, cat. 11765054), 100 U/mL penicillin-streptomycin (Thermo Fisher Scientific, cat. 15140122), and 2.5% Matrigel (Corning Inc., Corning, NY, cat. 354248) for the first three passages. The two PDC lines 997537-175-T-J1-PDC and 415267-285-R-J2-PDC were cultured on uncoated flasks. The 857933-349-R-J2-PDC line was cultured in 6C/Colon 1B media containing advanced DMEM/F-12 (Thermo Fisher Scientific, cat. 12634028), 10 mM HEPES (Thermo Fisher Scientific, cat. 15630080), 1X GlutaMAX supplement (Thermo Fisher Scientific, cat. 35050061), 0.1 mg/mL primocin (InvivoGen, San Diego, CA, cat. ant-pm-2), 10% defined fetal bovine serum, heat inactivated (HyClone Laboratories Inc., Logan, UT, cat. SH30070.03HI), 50% L-WRN conditioned media (ATCC, cat. CRL-3276), 1.25 mM N-Acetyl-L-cysteine (Sigma-Aldrich, cat. A9165), 10 mM nicotinamide (Sigma-Aldrich, cat. N0636), 1X B-27 supplement (Thermo Fisher Scientific, cat. 17504044), 1X N-2 supplement (Thermo Fisher Scientific, cat. […]

[1] = compound alone, run of 01/08/2024
[2] = compound alone, run of 01/19/2024
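Also: spheroids exposed to compounds for seven days before readout.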

Row | SMILES | viability, T/C (compound 0.0316 µM) | viability, T/C (compound 0.1 µM) | viability, T/C (compound 0.316 µM) | viability, T/C (compound 1 µM) | viability, T/C (compound 3.16 µM) | viability, T/C (compound 10 µM) | IC50 (curve of compound) | IC50 [1] | viability, T/C (compound 0.00316 µM) | viability, T/C (compound 0.01 µM) | IC50 [2] | viability, T/C (compound 0.000316 µM) | viability, T/C (compound 0.001 µM)
1 | CNCc1ccc(-c2[nH]c3cc(F)cc4c3c2CCNC4=O)cc1 | 100% and 90.4% and 94.9% | 113% and 94.5% and 90.2% | 112% and 94.5% and 80.8% | 109% and 95.4% and 91.2% | 108% and 106% and 89.7% | 97.1% and 91.2% and 90% | > 10000 nM | – | – | – | – | – | –
2 | COC1C(OC(N)=O)C(O)C(Oc2ccc3c(O)c(NC(=O)c4ccc(O)c(CC=C(C)C)c4)c(=O)oc3c2C)OC1(C)C (configuration not stated) | – | – | – | – | – | – | – | > 10000 nM | – | – | – | – | –
3 | COc1cc(C2c3cc4c(cc3C(OC3OC5COC(C)OC5C(O)C3O)C3COC(=O)C23)OCO4)cc(OC)c1O (configuration not stated) | 74.7% and 90.5% and 74.8% | 74% and 67.4% and 84.9% | 51.1% and 65.9% and 54.1% | 60% and 59.9% and 55.7% | 38.2% and 33.4% and 32.9% | 24.6% and 24.7% and 27.6% | 1160 nM and 1190 nM and 955 nM | – | – | – | – | – | –
4 | COc1cc2cc(C(=O)CCC(=O)O)sc2cc1OC | 92.5% and 89% and 101% | 88.6% and 95.5% and 91.5% | 94.9% and 102% and 82.7% | 88.2% and 110% and 92.5% | 102% and 111% and 116% | 84.1% and 95% and 89.9% | > 10000 nM | – | – | – | – | – | –
5 | COc1ccc([C@@H](O)c2cc(-c3ncnc4cc(N5CCOCC5)ccc34)c(F)cc2Cl)nn1 | 97.4% and 82.2% and 96.7% | 85.4% and 95.2% and 123% | 85.5% and 99% and 89.7% | 102% and 100% and 95.2% | 84.8% and 82.1% and 79.2% | 71.6% and 58.9% and 66% | > 10000 nM | – | – | – | – | – | –
6 | COc1cccc(OCCCN)c1-c1cc(Nc2cnc(C#N)cn2)n[nH]1 | 74.3% and 98.6% and 80.6% | 51.2% and 62.8% and 75.9% | 53.3% and 60.6% and 53.7% | 38.1% and 53.8% and 48.8% | – | – | 189 nM and > 1000 nM and 731 nM | – | 91.5% and 95.9% and 86.6% | 87.6% and 84.2% and 97.2% | – | – | –
7 | COc1cccc2c1C(=O)c1c(O)c3c(c(O)c1C2=O)CC(O)(C(=O)CO)CC3OC1CC(N)C(O)C(C)O1 (configuration not stated) | 74.8% and 79.1% and 66.5% | 76.8% and 69% and 68.7% | 43.7% and 46.9% and 49.5% | 10.4% and 8.69% and 8.8% | 0.42% and 0.45% and 0.4% | 0.55% and 0.34% and 0.38% | 259 nM and 312 nM | – | – | – | – | – | –
8 | Cc1cccc(N(C)C(=O)C2C(O)CCN2c2nc(C)cc(C(F)(F)F)c2C#N)c1 (configuration not stated) | 96.2% [middle of 13 runs] | – | – | – | – | – | – | > 10000 nM | – | – | > 10000 nM | – | –
9 | Cn1ncnc1[C@H]1c2n[nH]c(=O)c3cc(F)cc(c23)N[C@@H]1c1ccc(F)cc1 | 85.6% and 89.2% and 103% | 90.2% and 97.5% and 88.9% | – | – | – | – | > 100 nM | – | 105% and 103% (2×) | 99.3% and 97.8% and 73.1% | – | 96.9% and 93.8% and 114% | 93.6% and 90.7% and 86.2%
10 | Nc1ccc(C#CCN(C(=O)Cc2ncc(C(F)(F)F)cc2C(F)(F)F)c2ccc(F)cc2)nn1 | 97.7% [middle of 13 runs] | 104% [middle of 13 runs] | 102% [middle of 13 runs] | 99.5% [middle of 13 runs] | – | 99.5% [middle of 13 runs] | – | – | – | – | > 10000 nM | – | –
11 | Nc1ccn(C2OC(CO)C(O)C2(F)F)c(=O)n1 (configuration not stated) | 73.9% and 60.7% and 67.2% | 59.8% and 43.2% and 55.4% | 25.9% and 10.6% and 33.7% | 19.8% and 9.28% and 16.4% | 13% and 7.52% and 11.1% | 10.5% and 5.88% and 9.87% | 139 nM and 63.8 nM and 134 nM | – | – | – | – | – | –
12 | O=C(Nc1ccc(O)c(NS(=O)(=O)c2ccc(F)cc2)c1)c1ccc(-c2ccccc2)cc1 | 93.1% and 99.4% and 97.2% | 97.3% and 105% and 102% | 82.5% and 107% and 105% | 94.7% and 94% and 82.6% | 95.3% and 86.2% and 100% | 77.8% and 88.1% and 78.2% | > 10000 nM | – | – | – | – | – | –
13 | O=C(c1cc(Cc2n[nH]c(=O)c3ccccc23)ccc1F)N1CCN(C(=O)C2CC2)CC1 | 110% and 84.9% and 98.6% | 108% and 96.5% and 87.8% | 96.2% and 105% and 95.9% | 101% and 98.2% and 108% | 94.1% and 79.9% and 110% | 72.3% and 76.5% and 84.3% | > 10000 nM | – | – | – | – | – | –
14 | O=c1[nH]cc(F)c(=O)[nH]1 | 98.7% and 89.7% and 53.3% | 89.1% and 112% and 86.9% | 114% and 97.8% and 96% | 72.6% and 81.3% and 59.4% | 45.8% and 37.1% and 40.2% | 28.3% and 24.9% and 21.5% | 2380 nM and 2250 nM and 1890 nM | – | – | – | – | – | –

Source: PubChem BioAssay AID1963836 (Molecular Pharmacology Branch, DTP, NCI, 2024)
